# Patent US8354398B2, “Substituted isoxazole compounds” (Bristol-Myers Squibb Company, priority 2009, dated 2013)
# Where a name gives a salt, the structure may show the parent alone.
# Assays:
# [1] = molecular target: T1, S1P1 (Homo sapiens, UniProt P21453); assay: S1P1 Binding Assay (33P-S1P ligand competition, membranes from CHO cells); parameters: expressed in transfected cells; host or cells: CHO cells; conditions: membranes of CHO cells expressing human S1P1; 0.03 nM 33P-S1P; 60 min room temperature
# Method: Membranes were prepared from CHO cells expressing human S1P1. Cells were dissociated in buffer containing 20 mM HEPES, pH 7.5, 50 mM NaCl, 2 mM EDTA and Protease Inhibitor cocktail (Roche), and disrupted on ice using the Polytron homogenizer. The homogenate was centrifuged at 20,000 rpm (48,000 g) and the supernatant was discarded. The membrane pellets were resuspended in buffer containing 50 mM HEPES, pH 7.5, 100 mM NaCl, 1 mM MgCl2, 2 mM EDTA and stored in aliquots at −80° C. after protein concentration determination.
# Membranes (2 μg/well) and 0.03 nM final concentration of ^33P-S1P ligand (1 mCi/ml, American Radiolabeled Chemicals) were added to the compound plates. Binding was performed for 60 min at room temperature, terminated by collecting the membranes onto GF/B filter plates, and radioactivity was measured by TOPCOUNT®. The competition data of the test compounds over a range of concentrations was plotted as percentage inhibition of radioligand specific binding. The IC50 is defined as the concentration of competing ligand needed to reduce specific binding by 50%.
# Compounds of the present invention and Comparative Compound A were tested in the S1P1 binding assay described hereinabove and the results rounded to two digits, shown in Table A were obtained. In some instances, the value is an average of multiple experiments where N is the number of experiments conducted that provided satisfactory dose response curves. When more than one batch of an example was tested, the value presented is from the batch which allowed a comparison of GTPγS S1P1 and GTPγS S1P3 in Method A (Data shown in Table B). Data was not averaged across different batches of an example compound.
# [2] = molecular target: T1, S1P1; assay: Method A: Receptor [35S] GTPγS Binding Assay, membranes from S1P1/CHO cells; type: biochemical; parameters: expressed in transfected cells; host or cells: S1P1/CHO cells; conditions: for EC50: Method A, S1P1/CHO cell membranes; for GTPγS S1P3/S1P1 (Method A): ratio of GTPγS S1P3 EC50 to GTPγS S1P1 EC50, Method A
# Method: (§1) Compounds were loaded in a 384 Falcon v-bottom plate (0.5 μl/well in a 3-fold dilution). Membranes prepared from S1P1/CHO cells or EDG3-Ga15-bla HEK293T cells were added to the compound plate (40 μl/well, final protein […]) with MULTIDROP®. [^35S]GTP (1250 Ci/mmol, Perkin Elmer) was diluted in assay buffer: 20 mM HEPES, pH7.5, 10 mM MgCl2, 150 mM NaCl, 1 mM EGTA, 1 mM DTT, 10 μM GDP, 0.1% fatty acid free BSA, and 10 mg/ml Saponin to 0.4 nM. 40 μl of the [^35S] GTP solution was added to the compound plate with a final concentration of 0.2 nM. The reaction was kept at room temperature for 45 min. At the end of incubation, all the mixtures in the compound plate were transferred to a 384 well FB filter plates via GPCR robot system. The filter plate was washed with water 4 times by using the modified manifold Embla plate washer and dried at 60° C. for 45 min. 30 μl of MicroScint 20 scintillation fluid was added to each well for counting at Packard TOPCOUNT®. EC50 is defined as the agonist concentration that corresponds to 50% of the Ymax (maximal response) obtained for each individual compound tested.
# (§2) Compounds of the present invention and Comparative Compound A were tested in the Receptor [^35S] GTPγS Binding Assays (Method A) and Receptor [35S] In some instances, the value is an average of multiple experiments where N is the number of experiments conducted that provided satisfactory dose response curves. When more than one batch of an example was tested, the value presented is from a batch which allowed a comparison of GTPγS S1P1 and GTPγS S1P3 in which the most number of experiments were performed. Preferably, the same batch was examined in Method A and Method B. Data was not averaged across different batches of an example compound.
# [3] = molecular target: S1P3 (Homo sapiens, UniProt Q99500); assay: Method A: Receptor [35S] GTPγS Binding Assay, membranes from EDG3-Ga15-bla HEK293T cells; type: biochemical; parameters: expressed in transfected cells; host or cells: EDG3-Ga15-bla HEK293T cells; conditions: EDG3-Ga15-bla HEK293T cell membranes
# Method: as §1, §2
# [4] = molecular target: T1, S1P1; assay: Method B: Receptor [35S] GTPγS SPA Binding Assay, membranes from S1P1 transfected CHO cells; type: biochemical; parameters: expressed in transfected cells; host or cells: S1P1/CHO cells; conditions: Method B SPA; S1P1 transfected CHO cell membranes; NC = a satisfactory dose response curve was not obtained
# Method: Membranes prepared from S1P1 or S1P3 transfected CHO cells (2 μg protein) were incubated in 96-well white plates (CORNING® 3693) with test compounds diluted in DMSO, in 50 μl of reaction mixture containing 7.5 μl WGA-PVT beads (20 mg/ml), and 5 μM GDP, 20 mM HEPES pH 7.4, 100 mM NaCl, 1 mM EDTA, 5 mM MgCl2, 10 μg/ml saponin, 0.1% BSA, and 1 μM leupeptin. The assay was initiated with the addition of 25 μl of 0.2 nM [^35S]-GTPγS (1250 Ci/mmol; NEN) in assay buffer. After 90 min incubation at room temperature, spin the plate at 1000 rpm for 5 min. The bound radionuclides were measured at TOPCOUNT®, expressed as % response relative to S1P (1 μM) activation. Data was analyzed using the four parameter logistic equation in Excel. The four parameters in the equation, Y=A+((B−A)/(1+((EC50/X)^D))), are described as following: A is the Y value (agonist activity) at the bottom plateau; B is the Y value at the top plateau; EC50 is the X value (agonist concentration) when the response is halfway between bottom and top; D is Hill coefficient. Curves were not generated for compounds having Ymax values were below 50%.
# as §2
# T1 sequence (P21453 whole entry): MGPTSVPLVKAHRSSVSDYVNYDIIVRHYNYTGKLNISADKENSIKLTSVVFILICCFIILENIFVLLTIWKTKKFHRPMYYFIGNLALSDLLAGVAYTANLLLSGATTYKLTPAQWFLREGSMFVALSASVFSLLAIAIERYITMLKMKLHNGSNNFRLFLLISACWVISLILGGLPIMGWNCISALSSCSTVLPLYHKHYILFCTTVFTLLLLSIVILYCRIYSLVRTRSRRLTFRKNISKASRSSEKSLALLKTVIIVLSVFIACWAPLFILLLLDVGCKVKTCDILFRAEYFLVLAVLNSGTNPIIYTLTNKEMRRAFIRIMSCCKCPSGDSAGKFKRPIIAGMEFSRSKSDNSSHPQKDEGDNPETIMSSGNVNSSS
# Chain of S1P3 (Q99500 whole entry): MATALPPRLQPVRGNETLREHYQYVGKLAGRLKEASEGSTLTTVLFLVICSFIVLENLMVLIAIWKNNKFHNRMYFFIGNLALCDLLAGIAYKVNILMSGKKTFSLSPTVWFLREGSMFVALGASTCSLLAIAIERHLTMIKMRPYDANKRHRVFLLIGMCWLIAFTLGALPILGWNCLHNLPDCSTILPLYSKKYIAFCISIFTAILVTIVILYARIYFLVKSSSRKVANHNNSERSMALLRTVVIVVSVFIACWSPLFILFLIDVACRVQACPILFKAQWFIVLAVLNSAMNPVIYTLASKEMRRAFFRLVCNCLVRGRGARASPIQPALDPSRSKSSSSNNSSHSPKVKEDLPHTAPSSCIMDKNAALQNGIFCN
SMILES,IC50 [1] [nM],EC50 [2] [nM],GTPγS S1P3/S1P1 (Method A) [2],EC50 [3] [nM],EC50 [4] [nM]
"O=C(O)C1CN(Cc2ccc(-c3noc(-c4noc(-c5ccccc5)c4-c4ccccc4)n3)c(C(F)(F)F)c2)C1 [Example 25, 1-(4-(5-(4,5-Diphenylisoxazol-3-yl)-1,2,4-oxadiazol-3-yl)-3-(trifluoromethyl)benzyl)azetidine-3-carboxylic acid, 2,2,2-trifluoroacetic acid salt]",0.44,9.2,371,3400,–
"O=C(O)c1c(-c2ccccc2)noc1-c1nc(-c2ccc(CN3CC(C(=O)O)C3)cc2)no1 [Example 16, 5-(3-(4-((3-Carboxyazetidin-1-yl)methyl)phenyl)-1,2,4-oxadiazol-5-yl)-3-phenylisoxazole-4-carboxylic acid]",40,112,18,2050,–
"O=C(O)C1CN(Cc2ccc(-c3noc(-c4onc(-c5ccccc5)c4C(F)(F)F)n3)c(C(F)(F)F)c2)C1 [Example 24, 1-(4-(5-(3-phenyl-4-(trifluoromethyl)isoxazol-5-yl)-1,2,4-oxadiazol-3-yl)-3-(trifluoromethyl)benzyl)azetidine-3-carboxylic acid]",1.56,6.4,"4,900",31000,–
"O=C(NCC(F)(F)F)c1c(-c2ccccc2)noc1-c1nc(-c2ccc(CN3CC(C(=O)O)C3)cc2)no1 [Example 15, 1-(4-(5-(3-Phenyl-4-(2,2,2-trifluoroethylcarbamoyl)isoxazol-5-yl)-1,2,4-oxadiazol-3-yl)benzyl)azetidine-3-carboxylic acid, 2,2,2-trifluoroacetic acid salt]",6.5,29,175,5100,–
"Cc1cc(-c2noc(-c3onc(-c4ccccc4)c3C(F)(F)F)n2)ccc1CN1CC(C(=O)O)C1 [Example 22, 1-(2-methyl-4-(5-(3-phenyl-4-(trifluoromethyl)isoxazol-5-yl)-1,2,4-oxadiazol-3-yl)benzyl)azetidine-3-carboxylic acid]",0.55,0.52,"3,000",1600,–
"CCCc1onc(-c2nc(-c3ccc(CN4CC(C(=O)O)C4)cc3)no2)c1CC(C)C [Example 19, 1-(4-(5-(4-Isobutyl-5-propylisoxazol-3-yl)-1,2,4-oxadiazol-3-yl)benzyl)azetidine-3-carboxylic acid, TFA]",0.3,3,270,810,0.72
"O=C(O)C1CN(Cc2ccc(-c3noc(-c4onc(-c5ccccc5)c4C(F)(F)F)n3)cc2F)C1 [Example 21, 1-(2-Fluoro-4-(5-(3-phenyl-4-(trifluoromethyl)isoxazol-5-yl)-1,2,4-oxadiazol-3-yl)benzyl)azetidine-3-carboxylic acid]",0.32,0.32,"3,500",1100,–
"O=C(O)C1CN(Cc2ccc(-c3noc(-c4onc(-c5ccccc5)c4C(F)(F)F)n3)c(Cl)c2)C1 [Example 23, 1-(3-chloro-4-(5-(3-phenyl-4-(trifluoromethyl)isoxazol-5-yl)-1,2,4-oxadiazol-3-yl)benzyl)azetidine-3-carboxylic acid]",0.26,1.9,"4,400",8300,–

# These reach a lower IC50 [1]. Values come first.
IC50 [1] [nM],EC50 [2] [nM],GTPγS S1P3/S1P1 (Method A) [2],EC50 [3] [nM],EC50 [4] [nM],SMILES
0.15,0.56,"3,900",2200,–,"CC(C)Cc1onc(-c2nc(-c3ccc(CN4CC(C(=O)O)C4)cc3)no2)c1C(F)(F)F [Example 20, 1-(4-(5-(5-Isobutyl-4-(trifluoromethyl)isoxazol-3-yl)-1,2,4-oxadiazol-3-yl)benzyl)-azetidine-3-carboxylic acid]"
0.14,5.3,320,1700,–,"CCc1c(-c2nc(-c3ccc(CN4CC(C(=O)O)C4)c(Br)c3)no2)noc1-c1ccccc1 [Example 5, 1-(2-Bromo-4-(5-(4-ethyl-5-phenylisoxazol-3-yl)-1,2,4-oxadiazol-3-yl)benzyl)azetidine-3-carboxylic acid]"
0.094,1.9,578,1100,–,"COC(=O)c1c(-c2ccccc2)noc1-c1nc(-c2ccc(CN3CC(C(=O)O)C3)cc2)no1 [Example 13, 1-(4-(5-(4-(Methoxycarbonyl)-3-phenylisoxazol-5-yl)-1,2,4-oxadiazol-3-yl)benzyl)azetidine-3-carboxylic acid, 2,2,2-trifluoroacetic acid salt]"
0.09,3.7,140,520,–,"O=C(O)C1CN(Cc2ccc(-c3noc(-c4noc(-c5ccccc5)c4CCC(F)(F)F)n3)cc2)C1 [Example 8, 1-(4-(5-(5-Phenyl-4-(3,3,3-trifluoropropyl)isoxazol-3-yl)-1,2,4-oxadiazol-3-yl)benzyl)azetidine-3-carboxylic acid, 2,2,2-trifluoroacetic acid salt]"
0.055,0.84,230,190,0.055,"CCC(F)(F)c1c(-c2nc(-c3ccc(CN4CC(C(=O)O)C4)cc3)no2)noc1-c1ccccc1 [Example 10, 1-(4-(5-(4-(1,1-Difluoropropyl)-5-phenylisoxazol-3-yl)-1,2,4-oxadiazol-3-yl)benzyl)azetidine-3-carboxylic acid, trifluoroacetic acid salt]"
0.043,5.6,75,420,0.22,"O=C(O)C1CN(Cc2ccc(-c3noc(-c4noc(-c5ccccc5)c4C4CC4)n3)cc2)C1 [Example 6, 1-(4-(5-(4-Cyclopropyl-5-phenylisoxazol-3-yl)-1,2,4-oxadiazol-3-yl)benzyl)-azetidine-3-carboxylic acid, 2,2,2-trifluoroacetic acid salt]"
